# Experimental data reported in PubChem BioAssay (NCI).
#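 GI50 = concentration required for 50% inhibition of growth. TGI is the concentration that stops growth completely.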
# Legend:
# Experiment in all cases: NCI anticancer screen, dose series, 384-well format
# 786-0 renal = system: 786-0 renal
# A549 NSCLC = system: A549 NSCLC
# ACHN renal = system: ACHN renal
# CAKI-1 renal = system: CAKI-1 renal
# CCRF-CEM leukemia = system: CCRF-CEM leukemia
# HOP-92 NSCLC = system: HOP-92 NSCLC
# IGROV1 ovarian = system: IGROV1 ovarian
# MDA-MB-435 melanoma = system: MDA-MB-435 melanoma
# SK-MEL-2 melanoma = system: SK-MEL-2 melanoma
# SK-MEL-28 melanoma = system: SK-MEL-28 melanoma
# SNB-19 CNS = system: SNB-19 CNS
# TK-10 renal = system: TK-10 renal
# U251 glioblastoma = system: U251 glioblastoma
smiles,measurement,setting,value
C/C=C1\NC(=O)[C@H]2CSSCCC=C[C@H](CC(=O)N[C@H](C(C)C)C(=O)N2)OC(=O)[C@H](C(C)C)NC1=O,GI50,786-0 renal,< 10 nM
same,TGI,786-0 renal,< 14.9 nM
same,GI50,A549 NSCLC,< 10 nM
same,TGI,A549 NSCLC,< 10 nM
same,GI50,ACHN renal,< 11.9 nM
same,TGI,ACHN renal,23.3 nM
same,GI50,CAKI-1 renal,< 10 nM
same,TGI,CAKI-1 renal,< 10 nM
same,GI50,CCRF-CEM leukemia,< 10 nM
same,TGI,CCRF-CEM leukemia,< 10 nM
same,GI50,HOP-92 NSCLC,< 10 nM
same,TGI,HOP-92 NSCLC,< 10 nM
same,GI50,IGROV1 ovarian,< 10 nM
same,TGI,IGROV1 ovarian,< 10 nM
same,GI50,MDA-MB-435 melanoma,< 10 nM
same,TGI,MDA-MB-435 melanoma,< 10 nM
same,GI50,SK-MEL-2 melanoma,< 10 nM
same,TGI,SK-MEL-2 melanoma,< 10 nM
same,GI50,SK-MEL-28 melanoma,< 10 nM
same,TGI,SK-MEL-28 melanoma,< 10 nM
same,GI50,SNB-19 CNS,< 10 nM
same,TGI,SNB-19 CNS,< 10 nM
same,GI50,TK-10 renal,< 10 nM
same,TGI,TK-10 renal,< 18.1 nM
same,GI50,U251 glioblastoma,< 10 nM
same,TGI,U251 glioblastoma,< 10 nM
